Legend:
[1] = Percentage of entrapment of drugs in liposomes, determined by fluorescence after dialysis; assay type: physicochemical; conditions: liposomes of cardiolipin, phosphatidyl choline, cholesterol, stearylamine-DTPA
Procedure: For the preparation of liposomes, 6 mg of doxorubicin or daunorubicin was added to 9 mg of cardiolipin solution and evaporated to dryness under N2. To this dried mixture were then added 22.5 mg of phosphatidyl choline, 7.5 mg cholesterol and 3 mg of stearylamine-DTPA. Again, the mixture was evaporated to dryness under N2.
The dried lipids and doxorubicin or daunorubicin were resuspended in 6 ml of 0.01 M phosphate buffer with 0.85% NaCl, pH 7.4 (PBS). After one-half-hour swelling time, the liposomes were stirred for 15 minutes, followed by sonication (Heat System, Model W-220F) in a fixed temperature bath at 37°C for 90 minutes. The non-entrapped doxorubicin or daunorubicin was separated from liposome-encapsulated drug by extensive dialysis against 0.001 M phosphate buffer with 0.85% NaCl, pH 7.4 at 4°C over a period of 20 hours with at least two changes of buffer solutions (250 ml/ml liposomes). […] The difference in encapsulation of these two drugs relates to their lipophilicity; daunorubicin is more lipophilic than doxorubicin. The liposomes were freshly prepared each day and were diluted with 0.01 M phosphate buffer (PBS) so as to administer doses of doxorubicin or daunorubicin equivalent to doses of free drugs for pharmacological, toxicological and therapeutic studies.

P388 leukemia = assay: Antitumor studies against P388 leukemia in mice (median survival time, T/c); assay type: in vivo, CDF1 mice; conditions: 24 hours after i.p. implant of 1x10^6 P388 cells, Treated/Control x 100
Procedure: To investigate the therapeutic effectiveness of doxorubicin and daunorubicin entrapped in liposomes, antitumor studies were performed against P388 leukemia in CDF1 mice. Groups of ten mice were implanted intraperitoneally with lxl0^6 cells of P388 tumor, and drug treatment was initiated on day one intraperitoneally or intravenously after tumor cell inoculation. Antitumor efficacy was expressed in leukemic animals by the increase in median survival time, in the dose-range used, compared to controls. Dead animals were autopsied and toxicity was established on the basis of macroscopic necropsy findings.

[2] = Tissue disposition (heart, liver, spleen, lungs, kidney, intestine) in mice after i.v. administration; conditions: doxorubicin 6 mg/kg i.v., CDF1 mice; at 15 minutes
Procedure: (§1) Male CDF1 mice weighing 20-25 g were used to evaluate the influence of liposome encapsulation on plasma levels and physiological disposition of daunorubicin and doxorubicin. Free or encapsulated daunorubicin or doxorubicin was administered intravenously via a lateral tail vein at a dose of 6 mg/kg at 2% body weight (0.02 ml/gm). At 5, 15, 30, 60, 120, 240, and 480 minutes and at 24 hours, mice in each group were bled from the orbital sinus. Blood was collected in heparinized tubes and centrifuged at 1500 rpm for 10 minutes. The plasma layer was separated and frozen. Mice were then killed by cervical dislocation, and the liver, kidney, heart, spleen, small intestine and lungs were excised, rinsed in normal saline, and stored at -20°C until assayed.
(§2) Plasma and tissues were analyzed for drug equivalents by the method of Formelli et al. (Cancer Chemotherapy and Pharmacology, 5, 129-144 (1981)) as modified in the inventor's laboratories. Plasma (0.25 ml) was diluted to 1 ml with distilled water, followed by addition of 0.2 ml of AgN03 (33% wt/vol). Tissues were homogenized in 1 ml of water in a polytron homogenizer. […] The butanol extract was read in a spectrofluorometer at 470 nm excitation and 585 nm emission. Control plasma and tissues obtained from mice treated with blank liposomes were treated the same way and read in the fluorometer to correct for any endogenous fluorescence. […]

[3] = Lethal toxicity in normal mice; assay type: in vivo; conditions: 20 mg/kg intraperitoneally, normal CDF1 mice, by day 10
Procedure: For comparison of lethal toxicity of free doxorubicin and doxorubicin entrapped in liposomes, normal CDF1 mice were administered a dose of 20 mg/kg intraperitonally. The mice were observed until day 80 post-drug administration. The control mice received blank liposomes representing the same concentration of the lipid used to entrap a dose of 20 mg/kg of doxorubicin. Mice in each group were weighed twice weekly and were observed daily.

[4] = Plasma levels in mice after i.v. administration of free or liposome-entrapped drug; conditions: 6 mg/kg i.v.
Procedure: as §1, §2

Row | SMILES | efficiency of entrapment in liposomes [1] | T/c (%) (P388 leukemia; 2 mg/kg i.p.) | T/c (%) (P388 leukemia; 4 mg/kg i.p.) | T/c (%) (P388 leukemia; 6 mg/kg i.p.) | T/c (%) (P388 leukemia; 6 mg/kg i.p., listed as daunorubicin) | T/c (%) (P388 leukemia; 15 mg/kg l.v) | T/c (%) (P388 leukemia; 20 mg/kg i.v.) | peak drug concentration in the kidney [2] [µg/gm] | mortality [3] [%] | T/c (%) (P388 leukemia; 15 mg/kg i.p.) | T/c (%) (P388 leukemia; 20 mg/kg i.p.) | peak plasma concentration (doxorubicin) [4] [µg/mL]
1 | COc1cccc2c1C(=O)c1c(O)c3c(c(O)c1C2=O)C[C@@](O)(C(C)=O)C[C@@H]3O[C@H]1C[C@H](N)[C@H](O)[C@H](C)O1 [Free Daunorubicin, daunorubicin] | 75-85% | 145.5 | 136.4 | 109.1 | 109 | 145.5 | 154.5 | – | – | – | – | –
2 | COc1cccc2c1C(=O)c1c(O)c3c(c(O)c1C2=O)C[C@@](O)(C(=O)CO)C[C@@H]3O[C@H]1C[C@H](N)[C@H](O)[C@H](C)O1 [Free Doxorubicin, doxorubicin] | 65-75% | – | – | – | – | – | – | 41.0 | 100 | 130 | 100 | 2.4
